Results: ChEMBL document CHEMBL5291721, “A preclinical secondary pharmacology resource illuminates target-adverse drug reaction associations of marketed drugs” (Nat Commun, 2023)

What was measured:
[1] = target: Beta-1 adrenergic receptor (Homo sapiens, UniProt P08588); assay type: functional
[2] = target: Beta-2 adrenergic receptor (Homo sapiens, UniProt P07550); assay type: functional, cell-based
[3] = target: Voltage-dependent L-type calcium channel subunit alpha-1C (Rattus norvegicus, UniProt P22002); assay type: functional
Chain of Voltage-dependent L-type calcium channel subunit alpha-1C (P22002 whole entry): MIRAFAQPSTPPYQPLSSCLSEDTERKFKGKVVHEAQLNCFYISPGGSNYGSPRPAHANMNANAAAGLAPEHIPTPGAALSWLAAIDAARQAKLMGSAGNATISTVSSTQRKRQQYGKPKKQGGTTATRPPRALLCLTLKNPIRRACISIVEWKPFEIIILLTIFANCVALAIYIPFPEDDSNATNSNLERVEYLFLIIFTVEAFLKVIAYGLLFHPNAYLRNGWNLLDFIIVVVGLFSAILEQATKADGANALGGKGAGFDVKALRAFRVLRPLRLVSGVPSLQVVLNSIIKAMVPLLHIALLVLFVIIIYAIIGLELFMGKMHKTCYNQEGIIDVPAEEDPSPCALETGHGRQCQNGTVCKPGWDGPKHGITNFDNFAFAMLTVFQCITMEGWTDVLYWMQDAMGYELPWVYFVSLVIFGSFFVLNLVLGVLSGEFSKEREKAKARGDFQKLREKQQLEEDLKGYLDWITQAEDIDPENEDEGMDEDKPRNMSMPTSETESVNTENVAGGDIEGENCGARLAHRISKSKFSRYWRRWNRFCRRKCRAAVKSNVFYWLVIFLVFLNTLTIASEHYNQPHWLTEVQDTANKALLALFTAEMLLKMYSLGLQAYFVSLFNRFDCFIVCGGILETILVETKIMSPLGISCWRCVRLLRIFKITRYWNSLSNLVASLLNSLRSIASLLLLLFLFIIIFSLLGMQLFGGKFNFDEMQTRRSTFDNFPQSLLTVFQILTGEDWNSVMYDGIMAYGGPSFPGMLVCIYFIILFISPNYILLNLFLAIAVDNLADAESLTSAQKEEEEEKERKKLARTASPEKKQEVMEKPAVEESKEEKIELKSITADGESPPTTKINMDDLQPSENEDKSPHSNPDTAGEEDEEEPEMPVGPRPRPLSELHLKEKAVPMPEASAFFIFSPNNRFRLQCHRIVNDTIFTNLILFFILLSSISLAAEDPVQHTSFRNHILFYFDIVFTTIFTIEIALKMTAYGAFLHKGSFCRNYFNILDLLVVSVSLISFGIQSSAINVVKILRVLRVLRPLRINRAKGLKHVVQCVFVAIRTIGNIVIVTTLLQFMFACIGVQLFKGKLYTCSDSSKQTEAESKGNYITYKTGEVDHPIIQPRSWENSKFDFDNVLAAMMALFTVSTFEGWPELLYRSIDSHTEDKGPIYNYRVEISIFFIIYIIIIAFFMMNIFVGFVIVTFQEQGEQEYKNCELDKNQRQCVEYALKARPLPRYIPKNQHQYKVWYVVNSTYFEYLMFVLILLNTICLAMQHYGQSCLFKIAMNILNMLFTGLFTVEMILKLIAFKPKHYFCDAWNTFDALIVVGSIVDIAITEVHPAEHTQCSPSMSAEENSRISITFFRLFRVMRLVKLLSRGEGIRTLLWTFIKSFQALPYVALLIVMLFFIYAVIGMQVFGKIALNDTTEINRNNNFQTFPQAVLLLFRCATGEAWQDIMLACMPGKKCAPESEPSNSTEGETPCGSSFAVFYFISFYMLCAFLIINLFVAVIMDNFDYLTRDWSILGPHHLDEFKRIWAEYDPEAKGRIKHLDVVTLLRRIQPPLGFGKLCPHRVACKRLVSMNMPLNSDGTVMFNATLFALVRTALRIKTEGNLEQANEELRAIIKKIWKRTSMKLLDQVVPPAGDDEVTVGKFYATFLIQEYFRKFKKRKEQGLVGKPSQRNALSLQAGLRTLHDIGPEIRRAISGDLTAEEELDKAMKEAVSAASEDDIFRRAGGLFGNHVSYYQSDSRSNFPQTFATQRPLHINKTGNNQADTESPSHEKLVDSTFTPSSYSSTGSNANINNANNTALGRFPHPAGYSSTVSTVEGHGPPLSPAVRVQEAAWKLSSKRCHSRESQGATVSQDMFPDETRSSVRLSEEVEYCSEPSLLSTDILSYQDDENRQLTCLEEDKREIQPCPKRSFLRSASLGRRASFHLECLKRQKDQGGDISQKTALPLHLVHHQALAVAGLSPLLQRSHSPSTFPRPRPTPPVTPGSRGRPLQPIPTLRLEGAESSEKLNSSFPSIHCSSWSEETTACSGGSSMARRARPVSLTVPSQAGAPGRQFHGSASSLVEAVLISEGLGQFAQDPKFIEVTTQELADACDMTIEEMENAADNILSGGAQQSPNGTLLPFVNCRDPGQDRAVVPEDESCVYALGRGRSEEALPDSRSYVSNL

[4] = target: T1, Gastrin/cholecystokinin type B receptor (Homo sapiens, UniProt P32239)
T1 sequence (P32239 whole entry): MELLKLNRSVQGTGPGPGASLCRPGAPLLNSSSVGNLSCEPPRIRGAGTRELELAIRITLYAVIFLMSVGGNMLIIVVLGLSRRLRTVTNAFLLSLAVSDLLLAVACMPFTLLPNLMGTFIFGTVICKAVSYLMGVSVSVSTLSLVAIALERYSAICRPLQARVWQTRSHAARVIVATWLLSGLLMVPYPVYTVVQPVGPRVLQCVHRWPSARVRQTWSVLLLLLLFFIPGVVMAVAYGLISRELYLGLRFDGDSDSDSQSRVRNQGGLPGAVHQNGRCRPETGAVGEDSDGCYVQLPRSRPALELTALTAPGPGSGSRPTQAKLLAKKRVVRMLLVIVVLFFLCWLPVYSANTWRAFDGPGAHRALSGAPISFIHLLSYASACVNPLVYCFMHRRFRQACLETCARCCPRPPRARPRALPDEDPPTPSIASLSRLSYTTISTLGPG

[5] = target: T2, Muscarinic acetylcholine receptor M2 (Homo sapiens, UniProt P08172); assay type: functional, cell-based
T2 sequence (P08172 whole entry): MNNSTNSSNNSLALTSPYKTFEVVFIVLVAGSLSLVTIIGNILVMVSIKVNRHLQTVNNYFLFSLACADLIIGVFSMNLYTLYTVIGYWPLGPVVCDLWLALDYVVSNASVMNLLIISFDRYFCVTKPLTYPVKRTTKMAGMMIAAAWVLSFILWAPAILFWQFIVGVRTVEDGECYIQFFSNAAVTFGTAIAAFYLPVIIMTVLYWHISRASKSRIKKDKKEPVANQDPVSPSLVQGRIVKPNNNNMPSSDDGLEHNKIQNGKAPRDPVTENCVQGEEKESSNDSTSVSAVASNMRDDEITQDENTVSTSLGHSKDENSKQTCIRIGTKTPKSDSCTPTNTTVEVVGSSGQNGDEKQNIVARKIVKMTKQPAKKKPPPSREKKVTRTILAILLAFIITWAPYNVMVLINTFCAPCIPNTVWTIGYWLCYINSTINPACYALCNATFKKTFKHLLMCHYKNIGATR

[6] = target: 5-hydroxytryptamine receptor 2A (Homo sapiens, UniProt P28223); assay type: functional, cell-based
Chain of 5-hydroxytryptamine receptor 2A (P28223 whole entry): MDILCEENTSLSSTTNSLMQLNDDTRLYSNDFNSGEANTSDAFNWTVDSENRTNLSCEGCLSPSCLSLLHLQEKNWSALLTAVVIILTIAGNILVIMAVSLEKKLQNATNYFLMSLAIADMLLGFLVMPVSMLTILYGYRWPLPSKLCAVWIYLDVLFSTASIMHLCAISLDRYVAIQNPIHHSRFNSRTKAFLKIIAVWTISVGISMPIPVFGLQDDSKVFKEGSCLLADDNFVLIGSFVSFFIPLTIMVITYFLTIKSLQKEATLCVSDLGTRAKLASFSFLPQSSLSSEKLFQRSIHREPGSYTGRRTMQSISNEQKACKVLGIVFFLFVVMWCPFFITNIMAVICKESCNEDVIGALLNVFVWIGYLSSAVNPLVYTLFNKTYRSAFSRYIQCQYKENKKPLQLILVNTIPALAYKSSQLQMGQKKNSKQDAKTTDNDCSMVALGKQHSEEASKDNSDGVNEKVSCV

[7] = target: T3, Neuropeptide Y receptor type 1 (Homo sapiens, UniProt P25929)
T3 sequence (P25929 whole entry): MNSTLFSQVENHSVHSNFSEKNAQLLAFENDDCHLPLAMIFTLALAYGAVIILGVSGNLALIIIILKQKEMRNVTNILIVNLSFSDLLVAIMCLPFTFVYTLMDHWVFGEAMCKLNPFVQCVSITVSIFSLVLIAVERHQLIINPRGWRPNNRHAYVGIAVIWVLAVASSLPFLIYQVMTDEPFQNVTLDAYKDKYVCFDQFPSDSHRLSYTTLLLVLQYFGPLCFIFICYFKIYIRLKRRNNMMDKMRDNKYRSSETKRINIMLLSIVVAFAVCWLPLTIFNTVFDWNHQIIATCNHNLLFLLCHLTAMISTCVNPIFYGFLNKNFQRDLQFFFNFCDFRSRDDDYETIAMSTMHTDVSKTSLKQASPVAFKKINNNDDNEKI

[8] = target: Kappa-type opioid receptor (Homo sapiens, UniProt P41145)
Chain of Kappa-type opioid receptor (P41145 whole entry): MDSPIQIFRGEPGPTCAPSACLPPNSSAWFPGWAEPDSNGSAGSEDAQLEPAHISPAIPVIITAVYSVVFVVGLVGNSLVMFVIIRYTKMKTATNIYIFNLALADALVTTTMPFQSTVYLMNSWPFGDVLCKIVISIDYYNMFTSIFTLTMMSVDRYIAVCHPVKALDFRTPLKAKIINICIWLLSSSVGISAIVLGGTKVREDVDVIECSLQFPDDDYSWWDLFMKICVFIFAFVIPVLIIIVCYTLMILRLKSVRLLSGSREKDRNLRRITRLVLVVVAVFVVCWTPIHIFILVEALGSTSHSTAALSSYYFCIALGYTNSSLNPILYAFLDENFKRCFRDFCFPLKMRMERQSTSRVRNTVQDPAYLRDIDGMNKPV

[9] = target: T4, Sodium-dependent serotonin transporter (Homo sapiens, UniProt P31645)
T4 sequence (P31645 whole entry): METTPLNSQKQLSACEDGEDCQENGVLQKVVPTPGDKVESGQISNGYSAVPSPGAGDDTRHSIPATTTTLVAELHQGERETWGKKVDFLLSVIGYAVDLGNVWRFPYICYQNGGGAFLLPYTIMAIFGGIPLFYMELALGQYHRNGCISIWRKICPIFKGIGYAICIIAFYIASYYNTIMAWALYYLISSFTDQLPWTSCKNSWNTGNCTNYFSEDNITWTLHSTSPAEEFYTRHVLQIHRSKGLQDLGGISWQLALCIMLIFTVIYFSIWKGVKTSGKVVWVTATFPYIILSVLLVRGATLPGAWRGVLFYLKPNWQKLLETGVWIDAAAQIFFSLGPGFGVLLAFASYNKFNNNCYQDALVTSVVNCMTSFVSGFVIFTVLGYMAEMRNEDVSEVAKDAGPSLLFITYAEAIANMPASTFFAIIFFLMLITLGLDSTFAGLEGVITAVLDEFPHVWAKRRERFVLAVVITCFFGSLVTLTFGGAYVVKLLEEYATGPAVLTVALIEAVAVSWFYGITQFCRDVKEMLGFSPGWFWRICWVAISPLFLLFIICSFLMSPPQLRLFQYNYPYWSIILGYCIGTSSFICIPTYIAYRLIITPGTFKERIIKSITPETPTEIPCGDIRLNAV

[10] = target: Mu-type opioid receptor (Homo sapiens, UniProt P35372)
Chain of Mu-type opioid receptor (P35372 whole entry): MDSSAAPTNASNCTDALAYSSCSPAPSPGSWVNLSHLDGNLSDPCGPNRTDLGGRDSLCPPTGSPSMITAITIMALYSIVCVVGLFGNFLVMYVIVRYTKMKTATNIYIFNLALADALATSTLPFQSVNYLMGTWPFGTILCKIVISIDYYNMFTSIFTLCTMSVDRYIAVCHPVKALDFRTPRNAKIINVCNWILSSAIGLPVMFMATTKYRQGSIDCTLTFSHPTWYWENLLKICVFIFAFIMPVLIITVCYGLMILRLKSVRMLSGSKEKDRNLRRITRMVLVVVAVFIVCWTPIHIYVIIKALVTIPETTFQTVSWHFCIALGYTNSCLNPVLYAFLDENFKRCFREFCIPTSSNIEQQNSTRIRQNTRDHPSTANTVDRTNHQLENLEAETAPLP

[11] = target: T5, Adenosine receptor A3 (Homo sapiens, UniProt P0DMS8)
T5 sequence (P0DMS8 whole entry): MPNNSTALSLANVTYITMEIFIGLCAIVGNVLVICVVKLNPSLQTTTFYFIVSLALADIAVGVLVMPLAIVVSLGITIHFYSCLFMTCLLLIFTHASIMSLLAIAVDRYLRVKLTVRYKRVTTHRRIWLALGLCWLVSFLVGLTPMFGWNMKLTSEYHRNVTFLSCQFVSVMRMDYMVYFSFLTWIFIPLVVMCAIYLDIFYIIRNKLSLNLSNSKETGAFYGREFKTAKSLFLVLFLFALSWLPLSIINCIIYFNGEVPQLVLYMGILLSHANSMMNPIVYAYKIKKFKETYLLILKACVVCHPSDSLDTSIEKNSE

[12] = target: T6, Estrogen receptor (Homo sapiens, UniProt P03372)
T6 sequence (P03372 whole entry): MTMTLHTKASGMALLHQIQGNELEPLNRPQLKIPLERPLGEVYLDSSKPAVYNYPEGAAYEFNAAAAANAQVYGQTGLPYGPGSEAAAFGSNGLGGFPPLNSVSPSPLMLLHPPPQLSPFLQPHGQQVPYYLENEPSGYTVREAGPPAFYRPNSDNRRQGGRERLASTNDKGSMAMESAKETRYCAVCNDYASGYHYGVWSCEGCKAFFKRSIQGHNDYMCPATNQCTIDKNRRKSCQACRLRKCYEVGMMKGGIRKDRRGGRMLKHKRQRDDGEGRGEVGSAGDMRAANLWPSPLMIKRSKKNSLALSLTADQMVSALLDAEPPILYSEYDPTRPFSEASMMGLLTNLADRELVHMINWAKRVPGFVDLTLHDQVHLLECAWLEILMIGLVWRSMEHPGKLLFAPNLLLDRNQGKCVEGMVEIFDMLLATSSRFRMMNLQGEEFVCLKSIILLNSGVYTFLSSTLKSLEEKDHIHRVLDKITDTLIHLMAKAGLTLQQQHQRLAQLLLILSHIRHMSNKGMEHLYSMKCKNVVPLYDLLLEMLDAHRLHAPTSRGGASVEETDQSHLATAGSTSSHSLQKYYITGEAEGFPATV

[13] = target: Prothrombin (Homo sapiens, UniProt P00734); assay type: functional
[14] = target: T4, Sodium-dependent serotonin transporter; remark: listed apart in the source
Also: assay procedure not described here.

Chain of Beta-2 adrenergic receptor (P07550 whole entry): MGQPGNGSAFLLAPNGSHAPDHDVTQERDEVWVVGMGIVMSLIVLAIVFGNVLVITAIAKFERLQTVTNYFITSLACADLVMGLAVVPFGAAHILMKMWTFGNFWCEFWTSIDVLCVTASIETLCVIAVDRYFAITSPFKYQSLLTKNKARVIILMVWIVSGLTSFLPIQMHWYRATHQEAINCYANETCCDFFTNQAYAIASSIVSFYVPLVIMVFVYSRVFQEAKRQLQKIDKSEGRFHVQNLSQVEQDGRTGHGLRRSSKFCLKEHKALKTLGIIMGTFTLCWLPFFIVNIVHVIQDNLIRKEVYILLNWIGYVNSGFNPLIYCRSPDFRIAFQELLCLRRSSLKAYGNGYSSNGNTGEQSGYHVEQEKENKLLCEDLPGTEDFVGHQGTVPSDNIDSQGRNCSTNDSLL
Chain of Beta-1 adrenergic receptor (P08588 whole entry): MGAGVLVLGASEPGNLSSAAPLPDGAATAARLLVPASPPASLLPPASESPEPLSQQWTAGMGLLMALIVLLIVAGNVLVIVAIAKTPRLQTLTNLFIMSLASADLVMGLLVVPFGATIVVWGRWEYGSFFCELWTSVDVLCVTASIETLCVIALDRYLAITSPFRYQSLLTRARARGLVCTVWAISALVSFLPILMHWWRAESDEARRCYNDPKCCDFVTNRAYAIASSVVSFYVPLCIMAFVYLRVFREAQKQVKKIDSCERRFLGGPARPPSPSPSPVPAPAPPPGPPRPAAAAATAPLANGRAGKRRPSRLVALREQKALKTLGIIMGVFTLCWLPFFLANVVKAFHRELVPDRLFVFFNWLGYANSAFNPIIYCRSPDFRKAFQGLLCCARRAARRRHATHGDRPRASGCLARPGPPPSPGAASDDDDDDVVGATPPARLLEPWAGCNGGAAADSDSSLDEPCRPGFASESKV

Row | AC50 [1] | AC50 [2] | AC50 [3] | AC50 [4] | AC50 [5] | AC50 [6] | AC50 [7] | AC50 [8] | AC50 [9] | SMILES | AC50 [10] | AC50 [11] | AC50 [12] | AC50 [13] | AC50 [14]
1 | > 30 µM | > 30 µM | 5 µM | > 30 µM | > 30 µM | > 30 µM | > 30 µM | 14 µM | 20 µM | CC(C)/N=c1\cc2n(-c3ccc(Cl)cc3)c3ccccc3nc-2cc1Nc1ccc(Cl)cc1 [CLOFAZIMINE] |  |  |  |  | 
2 | > 30 µM | > 30 µM |  | > 30 µM | > 30 µM | > 30 µM | > 30 µM | > 30 µM | > 30 µM | N[C@@H](Cc1cc(I)c(Oc2cc(I)c(O)c(I)c2)c(I)c1)C(=O)O [LEVOTHYROXINE] |  |  |  |  | 
3 |  |  |  |  |  |  |  |  |  | N#Cc1ccnc(N2C(=O)CC[C@H]2C(=O)N(c2cncc(F)c2)[C@H](C(=O)NC2CC(F)(F)C2)c2ccccc2Cl)c1 [IVOSIDENIB] |  | > 30 µM | > 30 µM | > 30 µM | > 30 µM
4 |  |  |  |  |  |  |  |  |  | CC(C)Nc1cccnc1N1CCN(C(=O)c2cc3cc(NS(C)(=O)=O)ccc3[nH]2)CC1 [DELAVIRDINE] |  | 21.4 µM | > 30 µM | > 30 µM | > 30 µM
5 |  |  |  |  |  |  |  |  |  | O=c1[nH]c2ccccc2n1CCN1CCN(c2cccc(C(F)(F)F)c2)CC1 [FLIBANSERIN] |  | 15.6 µM | > 30 µM | > 10 µM | 17.7 µM
6 | > 10 µM | > 30 µM | > 10 µM | > 30 µM | > 10 µM |  | > 30 µM | > 10 µM |  | C[C@H](CS)C(=O)N1CCC[C@H]1C(=O)O [CAPTOPRIL] | > 30 µM |  |  |  | 
7 |  | > 30 µM |  | > 30 µM | 26 µM | > 30 µM | > 30 µM | > 30 µM | 3 µM | CN(C)CCOC(c1ccc(Cl)cc1)c1ccccn1 (configuration not stated) [CARBINOXAMINE] |  |  |  |  | 
8 |  |  |  |  |  |  |  |  |  | C[C@]12CC[C@@H]3c4ccc(OC(=O)N(CCCl)CCCl)cc4CC[C@H]3[C@@H]1CC[C@@H]2OP(=O)(O)O [ESTRAMUSTINE PHOSPHATE] |  | 7.84 µM | 2.03 µM | > 30 µM | > 30 µM
9 | > 30 µM | > 30 µM |  | > 30 µM | > 30 µM | 13 µM | > 30 µM | > 30 µM | > 30 µM | CN(C)CCc1c[nH]c2ccc(CS(=O)(=O)N3CCCC3)cc12 [ALMOTRIPTAN] |  |  |  |  | 
10 |  |  |  |  |  |  |  |  |  | NC(=O)C1(N2CCCCC2)CCN(CCCC(=O)c2ccc(F)cc2)CC1 [PIPAMPERONE] |  | > 30 µM | > 30 µM | > 30 µM | 15.8 µM
11 |  |  |  |  |  |  |  |  |  | CC(C)NC[C@H](O)COc1ccc(O)cc1 [PRENALTEROL] |  | > 30 µM | > 30 µM | > 30 µM | > 30 µM
12 |  |  |  |  |  |  |  |  |  | CN1CCC(N(Cc2cccs2)c2ccccc2)CC1 [THENALIDINE] |  | > 30 µM | > 30 µM | > 30 µM | 18 µM
13 | > 30 µM | > 30 µM |  | > 30 µM |  |  | > 30 µM | > 30 µM |  | CC(=O)NC[C@H]1CN(c2ccc(N3CCOCC3)c(F)c2)C(=O)O1 [LINEZOLID] |  |  |  |  | 
14 |  |  |  |  |  |  |  |  |  | CCCCCCO[C@@H](C)c1cccc(-c2csc(NC(=O)c3cc(Cl)c(/C=C(\C)C(=O)O)c(Cl)c3)n2)c1OC [LUSUTROMBOPAG] |  | 0.334 µM | 2.91 µM | 19.3 µM | > 30 µM
15 |  |  |  |  |  |  |  |  |  | NC(=O)C1(N2CCCCC2)CCN(CCCN2c3ccccc3CCc3ccccc32)CC1 [CARPIPRAMINE] |  | > 30 µM | > 30 µM | > 30 µM | 2.73 µM
16 |  |  |  |  |  |  |  |  |  | C=CCOc1ccc(CC(=O)O)cc1Cl [ALCLOFENAC] |  | > 30 µM | > 30 µM | > 30 µM | > 30 µM
17 |  |  |  |  |  |  |  |  |  | OC[C@H]1NC[C@H](O)[C@@H](O)[C@H]1O |  | > 30 µM | > 30 µM | > 30 µM | > 30 µM
18 |  |  |  |  |  |  |  |  |  | Cc1ccc(C(C)C)c(O)c1 [THYMOL] |  | > 30 µM | > 30 µM | > 30 µM | > 30 µM
19 |  |  |  |  |  |  |  |  |  | Cc1cc(C)cc(OCC2CNC(=O)O2)c1 (configuration not stated) [METAXALONE] |  | > 30 µM | > 30 µM | > 30 µM | > 30 µM
20 | > 10 µM | > 30 µM |  | > 30 µM | > 10 µM |  | > 30 µM | > 10 µM |  | Nc1nnc(-c2cccc(Cl)c2Cl)c(N)n1 [LAMOTRIGINE] | > 30 µM |  |  |  | 
21 |  |  |  |  |  |  |  |  |  | C[C@@H](CN1CC(=O)NC(=O)C1)N1CC(=O)NC(=O)C1 [DEXRAZOXANE] |  | > 30 µM | > 30 µM | > 30 µM | > 30 µM
22 |  |  |  |  |  |  |  |  |  | CN1CCN(C(c2ccccc2)c2ccc(Cl)cc2)CC1 (configuration not stated) [CHLORCYCLIZINE] |  | > 30 µM | > 30 µM | > 30 µM | 15.4 µM

Row | SMILES | AC50 [1] | AC50 [2] | AC50 [3] | AC50 [4] | AC50 [5] | AC50 [6] | AC50 [7] | AC50 [8] | AC50 [9] | AC50 [10] | AC50 [11] | AC50 [12] | AC50 [13] | AC50 [14]
23 | C[C@H](CCC(=O)O)[C@H]1CC[C@H]2[C@@H]3[C@H](O)C[C@@H]4C[C@H](O)CC[C@]4(C)[C@H]3CC[C@]12C [CHENODIOL] | > 30 µM | > 30 µM |  |  | 27 µM | > 30 µM |  |  |  | > 30 µM |  |  |  | 
24 | CN(C)CCN(Cc1ccccc1)c1ccccn1 [TRIPELENNAMINE] | > 30 µM |  | > 10 µM |  | > 10 µM | > 10 µM | > 10 µM | 6.25 µM | 0.209 µM | > 30 µM | > 30 µM | > 30 µM | > 30 µM | 0.395 µM
25 | NCCCNCCSP(=O)(O)O [AMIFOSTINE] | > 30 µM | > 30 µM |  | > 30 µM | > 30 µM |  | > 30 µM | > 30 µM |  |  |  |  |  | 
26 | CS(=O)(=O)Nc1ccc([N+](=O)[O-])cc1Oc1ccccc1 [NIMESULIDE] | > 30 µM | > 30 µM |  | > 30 µM | > 30 µM |  | > 30 µM | > 30 µM |  |  |  |  | > 30 µM | 
27 | CN1CC2c3ccccc3Oc3ccc(Cl)cc3C2C1 (configuration not stated) [ASENAPINE] | > 30 µM | > 30 µM |  |  | > 30 µM | > 30 µM |  |  |  | > 30 µM |  |  |  | 
